Source: US5237060A, “Process of preparing enantiomerically pure 1,8-bridged 4-quinolone-3-carboxylic acids” (Bayer Aktiengesellschaft, priority 1985, dated 1993)
In brackets after ≈: the same amount, converted by molar mass. Where two headings read alike, the source gives them in different places.

Tests used:
Assay in all cases: MIC, agar dilution test (isosensitest medium)
Format in all cases: cell-based
E. coli 4418 = details: Escherichia coli
Excerpt: (§1) Agar dilution test (isosensitest medium); Denley multipoint inoculator

E. coli A 261 = details: Escherichia coli, A261
Excerpt: as §1

E. coli T 7 = details: Escherichia coli, T7
Excerpt: as §1

Klebsiella 57 USA = tested on: Klebsiella 57 USA
Excerpt: as §1

Klebsiella 6318 = tested on: Klebsiella 6318
Excerpt: as §1

Klebsiella 63 = tested on: Klebsiella 63
Excerpt: as §1

Proteus 1875 = tested on: Proteus 1875
Excerpt: as §1

Proteus Vulg. 1017 = tested on: Proteus Vulg. 1017
Excerpt: as §1

Providencia 12012 = tested on: Providencia 12012
Excerpt: as §1

Pseudomonas Ellsworth = tested on: Pseudomonas Ellsworth
Excerpt: as §1

Pseudomonas Walter = tested on: Pseudomonas Walter
Excerpt: as §1

Staph. 133 = tested on: Staph. 133
Excerpt: as §1

Staph. 1756 = tested on: Staph. 1756
Excerpt: as §1

Staph. F 422 = tested on: Staph. F 422
Excerpt: as §1

Strepto 9790 = tested on: Strepto 9790
Excerpt: as §1

[1] = Klebsiella 63, agar dilution, read-out: MIC
[2] = Proteus 1875, agar dilution, read-out: MIC
[3] = Proteus Vulg. 1017, agar dilution, read-out: MIC
[4] = E. coli 4418, agar dilution, read-out: MIC
[5] = Klebsiella 57 USA, agar dilution, read-out: MIC
[6] = Klebsiella 6318, agar dilution, read-out: MIC

SMILES | MIC (E. coli A 261) | MIC (E. coli T 7) | MIC (Klebsiella 63; [1]) | MIC (Proteus 1875; [2]) | MIC (Proteus Vulg. 1017; [3]) | MIC (Providencia 12012) | MIC (Pseudomonas Ellsworth) | MIC (Pseudomonas Walter) | MIC (Staph. 133) | MIC (Staph. 1756) | MIC (Staph. F 422) | MIC (Strepto 9790) | MIC (E. coli 4418; [4]) | MIC (Klebsiella 57 USA; [5]) | MIC (Klebsiella 6318; [6]) | other results
C[C@H]1COc2c(N3CCN(C)CC3)c(F)cc3c(=O)c(C(=O)O)cn1c23 [Example 4, 3S-9-fluoro-3-methyl-10(4-methyl-1-piperazinyl)-7-oxo-7H-pyrido[1,2,3-de][1,4]-benzoxazine-6-carboxylic acid] | ≤ 0.015 µg/mL | 0.03 µg/mL (≈ 0.083 µM) | 0.06 µg/mL (≈ 0.166 µM) | 0.06 µg/mL (≈ 0.166 µM) | 0.06 µg/mL (≈ 0.166 µM) | 0.06 µg/mL (≈ 0.166 µM) | 0.25 µg/mL (≈ 0.692 µM) | 1 µg/mL (≈ 2.77 µM) | 0.25 µg/mL (≈ 0.692 µM) | 0.25 µg/mL (≈ 0.692 µM) | 0.25 µg/mL (≈ 0.692 µM) | 1 µg/mL (≈ 2.77 µM) |  |  |  | MIC (E. coli 4418; 4418): 0.125 µg/mL (≈ 0.346 µM); MIC (Klebsiella 57 USA; Klebsiella, 57USA): 0.125 µg/mL (≈ 0.346 µM); MIC (Klebsiella 6318; Klebsiella, 6318): 0.125 µg/mL (≈ 0.346 µM)
CC1COc2c(N3CCN(C)CC3)c(F)cc3c(=O)c(C(=O)O)cn1c23 (racemic) [Ofloxacin, reference compound] | 0.03 µg/mL (≈ 0.083 µM) | 0.06 µg/mL (≈ 0.166 µM) |  |  |  | 0.25 µg/mL (≈ 0.692 µM) | 0.5 µg/mL (≈ 1.38 µM) | 2 µg/mL (≈ 5.53 µM) | 0.5 µg/mL (≈ 1.38 µM) | 0.5 µg/mL (≈ 1.38 µM) | 0.5 µg/mL (≈ 1.38 µM) | 2 µg/mL (≈ 5.53 µM) | 0.25 µg/mL (≈ 0.692 µM) | 0.25 µg/mL (≈ 0.692 µM) | 0.25 µg/mL (≈ 0.692 µM) | MIC (Klebsiella 63; Klebsiella, 63): 0.125 µg/mL (≈ 0.346 µM); MIC (Proteus 1875): 0.125 µg/mL (≈ 0.346 µM); MIC (Proteus Vulg. 1017): 0.125 µg/mL (≈ 0.346 µM)
C[C@@H]1COc2c(N3CCN(C)CC3)c(F)cc3c(=O)c(C(=O)O)cn1c23 [Example 16, 3R-9-fluoro-3-methyl-10(4-methyl-1-piperazinyl)-7-oxo-7H-pyrido[1,2,3-de][1,4]-benzoxazine-6-carboxylic acid] | 0.25 µg/mL (≈ 0.692 µM) | 1 µg/mL (≈ 2.77 µM) | 2 µg/mL (≈ 5.53 µM) | 4 µg/mL (≈ 11.1 µM) | 2 µg/mL (≈ 5.53 µM) | 4 µg/mL (≈ 11.1 µM) | 4 µg/mL (≈ 11.1 µM) | 32 µg/mL (≈ 88.6 µM) | 8 µg/mL (≈ 22.1 µM) | 8 µg/mL (≈ 22.1 µM) | 16 µg/mL (≈ 44.3 µM) | 32 µg/mL (≈ 88.6 µM) | 2 µg/mL (≈ 5.53 µM) | 4 µg/mL (≈ 11.1 µM) | 4 µg/mL (≈ 11.1 µM) | 
